In patent US20060069132A1, “Azolecarboxamide herbicides” (priority 2004, published 2006):

Key:
rice [1] = experiment: Test B flooded paddy test; format: in vivo, Oryza sativa; details: 1000 g ai/ha, visual rating, scale 0 to 100 (0 no effect, 100 complete control), 13 to 15 days
Method in brief: (§1)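 Postemergence plants were sprayed with formulated test chemicals at 2 to 18 cm height (1- to 4-leaf stage); paddy species were grown to the 2-leaf stage. After 13 to 15 days in a greenhouse, injury was rated visually against untreated controls on a 0–100 scale (0 = no effect, 100 = complete control).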

rice [2] = experiment: Test B pre-/postemergence herbicide test; format: in vivo, Oryza sativa; details: preemergence; for Rice plant response rating (0 to 100 scale): 125 g ai/ha, 0 = no effect, 100 = complete control; for Plant response rating, Rice: 500 g ai/ha, visual rating 0-100, 0 no effect, 100 complete control
Method in brief: (§2)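 Response was scored visually 13 to 15 days after treatment against untreated greenhouse controls, 0 meaning no effect and 100 complete control. Formulations (solvent mixture plus surfactant) went onto soil after planting, onto foliage of 1- to 4-leaf plants, and onto 2-leaf plants in a flooded paddy set including rice and barnyardgrass.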

wheat = experiment: Test B postemergence herbicide test; format: in vivo, Triticum aestivum; design: key to Wheat plant response rating: 0 = no effect, 100 = complete control; details: postemergence, visual rating, scale 0 (no effect) to 100 (complete control)
Method in brief: (§3)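 Greenhouse test; postemergence application to plants at 1–4 leaves (2–18 cm); paddy species at 2 leaves; evaluated visually vs controls at 13–15 days; scale 0–100 (100 = complete control).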

blackgrass = experiment: Test B postemergence herbicide test; format: in vivo, Alopecurus myosuroides; details: postemergence, visual rating, scale 0 (no effect) to 100 (complete control)
Method in brief: as §1

pigweed = experiment: Test B pre-/postemergence herbicide test; format: in vivo, Amaranthus retroflexus; details: for Pigweed plant response rating (0 to 100 scale): 0 = no effect, 100 = complete control; for Pigweed plant response rating (0 to 100 scale) / Plant response rating, Pigweed: preemergence; for Plant response rating, Pigweed: visual rating 0-100, 0 no effect, 100 complete control; for Pigweed plant response rating: postemergence, visual rating, scale 0 (no effect) to 100 (complete control)
Method in brief: as §2

lambsquarters = experiment: Test B pre-/postemergence herbicide test; format: in vivo, Chenopodium album; details: for Lambsquarters plant response rating (0 to 100 scale): 0 = no effect, 100 = complete control; for Lambsquarters plant response rating (0 to 100 scale) / Plant response rating, Lambsquarters: preemergence; for Plant response rating, Lambsquarters: visual rating 0-100, 0 no effect, 100 complete control; for Lambsquarters plant response rating: postemergence, visual rating, scale 0 (no effect) to 100 (complete control)
Method in brief: as §2

[3] = test system: small flower umbrella sedge; experiment: Test B flooded paddy test; format: in vivo, Cyperus difformis; details: 1000 g ai/ha, visual rating, scale 0 to 100 (0 no effect, 100 complete control), 13 to 15 days
Method in brief: as §1

large crabgrass = experiment: Test B pre-/postemergence herbicide test; format: in vivo, Digitaria sanguinalis; details: for Crabgrass, Large plant response rating (0 to 100 scale): 0 = no effect, 100 = complete control; for Crabgrass, Large plant response rating (0 to 100 scale) / Plant response rating, Crabgrass, Large: preemergence; for Plant response rating, Crabgrass, Large: visual rating 0-100, 0 no effect, 100 complete control; for Crabgrass, Large plant response rating: postemergence, visual rating, scale 0 (no effect) to 100 (complete control)
Method in brief: as §2

Surinam grass = experiment: Test B pre-/postemergence herbicide test; format: in vivo, Urochloa decumbens; details: for Surinam Grass plant response rating (0 to 100 scale): 0 = no effect, 100 = complete control; for Surinam Grass plant response rating (0 to 100 scale) / Plant response rating, Surinam Grass: preemergence; for Plant response rating, Surinam Grass: visual rating 0-100, 0 no effect, 100 complete control; for Surinam Grass plant response rating: postemergence, visual rating, scale 0 (no effect) to 100 (complete control)
Method in brief: as §2

barnyardgrass [4] = experiment: Test B flooded paddy test; format: in vivo, Echinochloa crus-galli; details: 1000 g ai/ha, visual rating, scale 0 to 100 (0 no effect, 100 complete control), 13 to 15 days
Method in brief: as §1

corn = experiment: Test B pre-/postemergence herbicide test; format: in vivo, Zea mays; details: for Corn plant response rating (0 to 100 scale): 0 = no effect, 100 = complete control; for Corn plant response rating (0 to 100 scale) / Plant response rating, Corn: preemergence; for Plant response rating, Corn: visual rating 0-100, 0 no effect, 100 complete control; for Corn plant response rating: postemergence, visual rating, scale 0 (no effect) to 100 (complete control)
Method in brief: as §2

morningglory = experiment: Test B pre-/postemergence herbicide test; format: in vivo, Ipomoea coccinea; details: for Morningglory plant response rating (0 to 100 scale): 0 = no effect, 100 = complete control; for Morningglory plant response rating (0 to 100 scale) / Plant response rating, Morningglory: preemergence; for Plant response rating, Morningglory: visual rating 0-100, 0 no effect, 100 complete control; for Morningglory plant response rating: postemergence, visual rating, scale 0 (no effect) to 100 (complete control)
Method in brief: (§4)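 Seeds were planted and treated preemergence with compounds formulated in a non-phytotoxic solvent mixture containing surfactant, while plants at the 1- to 4-leaf stage (2 to 18 cm) received postemergence sprays. Flooded paddy plants were grown to the 2-leaf stage. After 13 to 15 days in a greenhouse, injury was visually rated 0–100 against untreated controls.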

barnyardgrass [5] = experiment: Test B pre-/postemergence herbicide test; format: in vivo, Echinochloa crus-galli; details: for Barnyardgrass plant response rating (0 to 100 scale): 0 = no effect, 100 = complete control; for Barnyardgrass plant response rating (0 to 100 scale) / Plant response rating, Barnyardgrass: preemergence; for Plant response rating, Barnyardgrass: visual rating 0-100, 0 no effect, 100 complete control; for Barnyardgrass plant response rating: postemergence, visual rating, scale 0 (no effect) to 100 (complete control)
Method in brief: as §4

giant foxtail = experiment: Test B pre-/postemergence herbicide test; format: in vivo, Setaria faberi; details: for Foxtail, Giant plant response rating (0 to 100 scale): 0 = no effect, 100 = complete control; for Foxtail, Giant plant response rating (0 to 100 scale) / Plant response rating, Foxtail, Giant: preemergence; for Plant response rating, Foxtail, Giant: visual rating 0-100, 0 no effect, 100 complete control; for Foxtail, Giant plant response rating: postemergence, visual rating, scale 0 (no effect) to 100 (complete control)
Method in brief: as §2

velvetleaf = experiment: Test B pre-/postemergence herbicide test; format: in vivo, Abutilon theophrasti; details: for Velvetleaf plant response rating (0 to 100 scale): 0 = no effect, 100 = complete control; for Velvetleaf plant response rating (0 to 100 scale) / Plant response rating, Velvetleaf: preemergence; for Plant response rating, Velvetleaf: visual rating 0-100, 0 no effect, 100 complete control; for Velvetleaf plant response rating: postemergence, visual rating, scale 0 (no effect) to 100 (complete control)
Method in brief: as §2

cocklebur = experiment: Test B pre-/postemergence herbicide test; format: in vivo, Xanthium strumarium; details: for Cocklebur plant response rating (0 to 100 scale): 0 = no effect, 100 = complete control; for Cocklebur plant response rating (0 to 100 scale) / Plant response rating, Cocklebur: preemergence; for Plant response rating, Cocklebur: visual rating 0-100, 0 no effect, 100 complete control; for Cocklebur plant response rating: postemergence, visual rating, scale 0 (no effect) to 100 (complete control)
Method in brief: as §4

ducksalad = experiment: Test B flooded paddy test; format: in vivo, Heteranthera limosa; details: 1000 g ai/ha, visual rating, scale 0 to 100 (0 no effect, 100 complete control), 13 to 15 days
Method in brief: as §1

wild oat = experiment: Test B postemergence herbicide test; format: in vivo, Avena fatua; details: postemergence, visual rating, scale 0 (no effect) to 100 (complete control)
Method in brief: as §3

CCN(CC)C(=O)c1cccc(NC(=O)c2cn(C(C)(C)C)nc2C)c1 [Compound 184]
60: Pigweed plant response rating (pigweed; 500 g ai/ha) | Lambsquarters plant response rating (lambsquarters; 125 g ai/ha) | Morningglory plant response rating (morningglory; 500 g ai/ha) | Plant response rating, Barnyardgrass (barnyardgrass [5]; 500 g ai/ha) | Velvetleaf plant response rating (velvetleaf; 500 g ai/ha) | Cocklebur plant response rating (cocklebur; 500 g ai/ha)
70: Lambsquarters plant response rating (lambsquarters; 500 g ai/ha) | Plant response rating, Foxtail, Giant (giant foxtail; 500 g ai/ha)
20: Pigweed plant response rating (pigweed; 125 g ai/ha) | Crabgrass, Large plant response rating (large crabgrass; 125 g ai/ha) | Surinam Grass plant response rating (Surinam grass; 500 g ai/ha) | Corn plant response rating (corn; 125 g ai/ha) | Oat, Wild plant response rating (wild oat; 125 g ai/ha)
50: Lambsquarters plant response rating (0 to 100 scale) (lambsquarters; 125 g ai/ha) | Plant response rating, Morningglory (morningglory; 500 g ai/ha) | Plant response rating, Velvetleaf (velvetleaf; 500 g ai/ha)
0: Rice plant response rating (rice [1]) | Rice plant response rating (0 to 100 scale) (rice [2]) | Plant response rating, Rice (rice [2]) | Wheat plant response rating (wheat; 125 g ai/ha) | Wheat plant response rating (wheat; 500 g ai/ha) | Blackgrass plant response rating (blackgrass; 125 g ai/ha) | Blackgrass plant response rating (blackgrass; 500 g ai/ha) | Surinam Grass plant response rating (0 to 100 scale) (Surinam grass; 125 g ai/ha) | Barnyardgrass plant response rating (barnyardgrass [4]) | Corn plant response rating (0 to 100 scale) (corn; 125 g ai/ha) | Plant response rating, Corn (corn; 500 g ai/ha) | Morningglory plant response rating (morningglory; 125 g ai/ha) | Barnyardgrass plant response rating (0 to 100 scale) (barnyardgrass [5]; 125 g ai/ha) | Barnyardgrass plant response rating (barnyardgrass [5]; 125 g ai/ha) | Barnyardgrass plant response rating (barnyardgrass [5]; 500 g ai/ha) | Foxtail, Giant plant response rating (0 to 100 scale) (giant foxtail; 125 g ai/ha) | Cocklebur plant response rating (0 to 100 scale) (cocklebur; 125 g ai/ha) | Plant response rating, Cocklebur (cocklebur; 500 g ai/ha) | Ducksalad plant response rating (ducksalad)
100: Pigweed plant response rating (0 to 100 scale) (pigweed; 125 g ai/ha) | Plant response rating, Pigweed (pigweed; 500 g ai/ha) | Plant response rating, Crabgrass, Large (large crabgrass; 500 g ai/ha)
10: Surinam Grass plant response rating (Surinam grass; 125 g ai/ha) | Morningglory plant response rating (0 to 100 scale) (morningglory; 125 g ai/ha) | Velvetleaf plant response rating (0 to 100 scale) (velvetleaf; 125 g ai/ha)
80: Plant response rating, Lambsquarters (lambsquarters; 500 g ai/ha)
30: Sedge, Umbrella plant response rating [3] | Crabgrass, Large plant response rating (0 to 100 scale) (large crabgrass; 125 g ai/ha) | Crabgrass, Large plant response rating (large crabgrass; 500 g ai/ha) | Plant response rating, Surinam Grass (Surinam grass; 500 g ai/ha) | Corn plant response rating (corn; 500 g ai/ha) | Foxtail, Giant plant response rating (giant foxtail; 125 g ai/ha) | Velvetleaf plant response rating (velvetleaf; 125 g ai/ha) | Cocklebur plant response rating (cocklebur; 125 g ai/ha) | Oat, Wild plant response rating (wild oat; 500 g ai/ha)
40: Foxtail, Giant plant response rating (giant foxtail; 500 g ai/ha)

CCCc1nn(C(C)(C)C)cc1C(=O)Nc1cccc(C(=O)N(CC)CC)c1 [Compound 185]
70: Lambsquarters plant response rating (lambsquarters; 500 g ai/ha) | Morningglory plant response rating (morningglory; 500 g ai/ha) | Plant response rating, Barnyardgrass (barnyardgrass [5]; 500 g ai/ha) | Plant response rating, Foxtail, Giant (giant foxtail; 500 g ai/ha)
20: Lambsquarters plant response rating (0 to 100 scale) (lambsquarters; 125 g ai/ha) | Crabgrass, Large plant response rating (large crabgrass; 125 g ai/ha) | Plant response rating, Surinam Grass (Surinam grass; 500 g ai/ha) | Surinam Grass plant response rating (Surinam grass; 125 g ai/ha) | Corn plant response rating (corn; 125 g ai/ha) | Foxtail, Giant plant response rating (giant foxtail; 125 g ai/ha) | Cocklebur plant response rating (cocklebur; 125 g ai/ha)
0: Rice plant response rating (rice [1]) | Rice plant response rating (0 to 100 scale) (rice [2]) | Plant response rating, Rice (rice [2]) | Wheat plant response rating (wheat; 125 g ai/ha) | Blackgrass plant response rating (blackgrass; 125 g ai/ha) | Blackgrass plant response rating (blackgrass; 500 g ai/ha) | Pigweed plant response rating (0 to 100 scale) (pigweed; 125 g ai/ha) | Crabgrass, Large plant response rating (0 to 100 scale) (large crabgrass; 125 g ai/ha) | Barnyardgrass plant response rating (barnyardgrass [4]) | Corn plant response rating (0 to 100 scale) (corn; 125 g ai/ha) | Plant response rating, Corn (corn; 500 g ai/ha) | Morningglory plant response rating (0 to 100 scale) (morningglory; 125 g ai/ha) | Barnyardgrass plant response rating (0 to 100 scale) (barnyardgrass [5]; 125 g ai/ha) | Foxtail, Giant plant response rating (0 to 100 scale) (giant foxtail; 125 g ai/ha) | Cocklebur plant response rating (0 to 100 scale) (cocklebur; 125 g ai/ha) | Plant response rating, Cocklebur (cocklebur; 500 g ai/ha) | Ducksalad plant response rating (ducksalad)
50: Plant response rating, Crabgrass, Large (large crabgrass; 500 g ai/ha) | Plant response rating, Morningglory (morningglory; 500 g ai/ha) | Barnyardgrass plant response rating (barnyardgrass [5]; 500 g ai/ha) | Plant response rating, Velvetleaf (velvetleaf; 500 g ai/ha) | Velvetleaf plant response rating (velvetleaf; 500 g ai/ha) | Cocklebur plant response rating (cocklebur; 500 g ai/ha)
40: Crabgrass, Large plant response rating (large crabgrass; 500 g ai/ha) | Morningglory plant response rating (morningglory; 125 g ai/ha)
10: Wheat plant response rating (wheat; 500 g ai/ha) | Surinam Grass plant response rating (0 to 100 scale) (Surinam grass; 125 g ai/ha) | Velvetleaf plant response rating (0 to 100 scale) (velvetleaf; 125 g ai/ha) | Oat, Wild plant response rating (wild oat; 125 g ai/ha)
100: Plant response rating, Pigweed (pigweed; 500 g ai/ha)
80: Pigweed plant response rating (pigweed; 500 g ai/ha) | Plant response rating, Lambsquarters (lambsquarters; 500 g ai/ha)
60: Pigweed plant response rating (pigweed; 125 g ai/ha) | Lambsquarters plant response rating (lambsquarters; 125 g ai/ha) | Sedge, Umbrella plant response rating [3]
30: Surinam Grass plant response rating (Surinam grass; 500 g ai/ha) | Corn plant response rating (corn; 500 g ai/ha) | Barnyardgrass plant response rating (barnyardgrass [5]; 125 g ai/ha) | Foxtail, Giant plant response rating (giant foxtail; 500 g ai/ha) | Velvetleaf plant response rating (velvetleaf; 125 g ai/ha) | Oat, Wild plant response rating (wild oat; 500 g ai/ha)
